# Experimental data taken from patent US20100113613A1, “CYCLOHEXANE POLYALCOHOL FORMULATION FOR TREATMENT OF DISORDERS OF PROTEIN AGGREGATION” (WARATAH PHARMACEUTICALS, priority 2006, published 2010).
# How the values were obtained:
# [1] = TgCRND8 (outbred C3H/C57B16 background), mouse, in vivo
# TgCRND8 mice = conditions: despite in vitro efficacy
# [2] = Orally administered tritiated-inositol uptake in plasma and brain (FIG. 16); type: in vivo
# Procedure: FIG. 16. Bioavailability of scyllo- (solid line) and myo-inositol (dashed line) in plasma and brain, determined using orally administered tritiated-inositol uptake studies. […] Brain levels also rose rapidly and were maximal at 8 h and 32 h, respectively.
# [3] = Brain and CSF levels of inositols after one month ad libitum dosing (GC/MS), Example 2; type: in vivo, TgCRND8 mice; conditions: TgCRND8 mice, myo-cyclohexanehexyl ad libitum for one month
# Procedure: Study drugs were administered either at 30 mg/kg by oral gavage, or ad libitum by dissolution in drinking water. For administration in drinking water, study drugs were dissolved at 10 mg/ml. The average amount of water taken from the bottle was 3 ml daily per animal. The average mouse weight was 33 g. […] Quantification of scyllo-cyclohexanehexyl and myo-inositol. Scyllo-cyclohexanehexyl and myo-cyclohexanehexyl levels in the brain and CSF were analyzed using gas chromatography/mass spectrometry. D-chiro-inositol was used as an internal control, as it is not present in these biological samples. Derivatization: To increase the volatility and thermal stability of these compounds and to allow for proper peak separation, these samples need to first be derivatized. The derivatization was adapted from a method presented previously (Shetty, H U, et al, 1995, Anal. Biochem. 224:279-85), where the hydroxyl groups of the cyclohexanehexyl were replaced with acetyl groups. […] Similarly, a 5-15 μl sample of CSF was mixed with 1 ml of methanol and allowed to stand at room temperature for 5 minutes. The resulting suspension was centrifuged (5 min, 5000×g) and the supernatant transferred to a glass tube (Teflon-lined cap). […] These samples were then evaporated to complete dryness (Speedvac; 60° C.). […] This mixture was flushed with dry nitrogen, securely capped and the tubes heated (80° C.; 30 min). Following derivatization, samples were cooled (RT) and the unreacted acetylating reagent evaporated using a steady stream of nitrogen gas. The derivatized products were re-dissolved (4 ml; hexane-ethyl acetate (80:20, v/v)) and washed with 1 ml of 5% sodium hydrogencarbonate solution. […] The residue was reconstituted in 100 μl; ethyl acetate. 1 μL of this was injected into the GC/MS system. A similar procedure was followed using stock concentrations of scyllo- and myo-cyclohexanehexols, which were then used to generate concentration curves (in this case the internal standard was derivatized separately and then added). GC/MS was performed using a Perkin Elmer TurboMass Autosystem XL, with a quadrupole mass spectrometer and electron ionization. Gas chromatography was performed using a 30 m×0.25 mm×0.25 μm ZB 5 (5% diphenyl/95% dimethylpolysiloxane) column, using the carrier gas Helium (1 ml/min). Samples were injected with the split set to 50 at 1 min and 0 at 5 min, the injector temperature was set at 300° C. and an initial oven temperature of 80° C. After a hold of 1 min, the temperature was ramped at 45° C./min to 187° C. and held there for 15 min. […] Sample peaks were analyzed using selected-ion monitoring, using m/z 168 for determining cyclohexanehexyl levels in the brain and CSF and m/z 373 for determining cyclohexanehexyl levels in plasma, as monitoring the larger ion reduced noise. […]
compound,measurement,setting,value
"O[C@H]1[C@H](O)[C@@H](O)[C@H](O)[C@@H](O)[C@H]1O [myo-inositol, reference compound]",increase in brain myo inositol levels over untreated controls,[1],1.2 fold
same,efficacy for the treatment of TgCRND8 mice,TgCRND8 mice,not shown to be effective
same,time of maximal brain levels,[2],8 h
same,time of peak plasma levels post administration,[2],2 h
same,increase of myo-cyclohexanehexyl level in brain vs untreated,[3]; p<0.001,20%
same,levels of myo-cyclohexanehexyl in CSF vs untreated,[3]; p=0.35,did not show any significant changes
